According to patent US20100144672A1, “PYRIMIDINYL PYRAZOLES AS INSECTICIDES AND PARASITICIDE ACTIVE AGENTS” (BAYER CROPSCIENCE AG, priority 2006, published 2010):

Key:
Assay type in all cases: in vivo
[1] = system: caterpillars of the army worm (Spodoptera frugiperda); experiment: Spodoptera frugiperda test (SPODFR spray treatment); conditions: 168 h, application rate 500 g/ha, after 7 d, read-out: activity (effect in %, caterpillars killed)
Procedure: Spodoptera frugiperda Test (SPODFR Spray Treatment) [table] To produce a suitable preparation of active compound, 1 part by weight of active compound is mixed with the stated amounts of solvents and emulsifier, and the concentrate is diluted with emulsifier-containing water to the desired concentration. Discs of maize leaves (Zea mays) are sprayed with an active compound preparation of the desired concentration and, after drying, populated with caterpillars of the army worm (Spodoptera frugiperda). After the desired period of time, the effect in % is determined 100% means that all caterpillars have been killed; 0% means that none of the caterpillars have been killed.

[2] = system: larvae of the mustard beetle (Phaedon cochleariae); experiment: Phaedon test (PHAECO spray treatment); conditions: 168 h, application rate 500 g/ha, after 7 d, read-out: activity (effect in %, beetle larvae killed)
Procedure: Phaedon Test ([…] Spray Treatment) [table] To produce a suitable preparation of active compound, 1 part by weight of active compound is mixed with the stated amounts of solvents and emulsifier, and the concentrate is diluted with emulsifier-containing water to the desired concentration. Discs of chinese cabbage (Brassica pekinensis) are sprayed with an active compound preparation of the desired concentration and, after drying, populated with larvae of the mustard beetle (Phaedon cochleariae). After the desired period of time, the effect in % is determined 100% means that all beetle larvae have been killed; 0% means that none of the beetle larvae have been killed.

[3] = system: Lucilia cuprina larvae; experiment: Lucilia cuprina test (LUCICU); conditions: 48 h, application rate 100 ppm, after 2 d, treated horse meat, read-out: activity (kill in %, larvae)
Procedure: Lucilia cuprina Test (LUCICU) Solvent: dimethyl sulphoxide To produce a suitable preparation of active compound, 1 part by weight of active compound is mixed with the stated amount of water, and the concentrate is diluted with water to the desired concentration. Containers containing horse meat treated with the active compound preparation of the desired concentration are populated with Lucilia cuprina larvae. After the desired period of time, the kill in % is determined 100% means that all larvae have been killed; 0% means that none of the larvae have been killed.

SMILES | pest or weed control at 500 g/ha [1] [%] | pest or weed control at 500 g/ha [2] [%] | pest or weed control at 100 ppm [3] [%]
Nc1c(-c2ccc(Cl)cc2)c(C(F)(F)F)nn1-c1ncccn1 [Example 1-6, 4-(4-chlorophenyl)-1-pyrimidin-2-yl-3-(trifluoromethyl)-1H-pyrazole-5-amine] | ≥ 80 | ≥ 80 | ≥ 80
Nc1c(-c2ccc(Br)cc2)c(C(F)(F)F)nn1-c1ncccn1 [Example 1-9, 4-(4-bromophenyl)-1-pyrimidin-2-yl-3-(trifluoromethyl)-1H-pyrazole-5-amine] | ≥ 80 | ≥ 80 | ≥ 80
Nc1c(-c2ccc(F)c(Cl)c2)c(C(F)(F)F)nn1-c1ncccn1 [Example 1-79, 4-(3-chloro-4-fluorophenyl)-1-pyrimidin-2-y1-3-(trifluoromethyl)-1H-pyrazole-5-amine] | ≥ 80 | ≥ 80 | ≥ 80
Nc1c(-c2ccc(Cl)c(Cl)c2)c(C(F)(F)F)nn1-c1ncccn1 [Example 1-80, 4-(3,4-dichlorophenyl)-1-pyrimidin-2-yl-3-(trifluoromethyl)-1H-pyrazole-5-amine] | ≥ 80 | ≥ 80 | ≥ 80
Nc1c(-c2cc(Cl)cc(C(F)(F)F)c2)c(C(F)(F)F)nn1-c1ncccn1 [Example 3-25, 4-(3-chloro-5-trifluoromethylphenyl)-2-pyrimidin-2-yl-5-trifluoromethyl-2H-pyrazol-3-ylamine] | ≥ 80 | ≥ 80 | ≥ 80
COc1ccc(-c2c(C(F)(F)F)nn(-c3ncccn3)c2N)cc1 [Example 5-22] |  | ≥ 80 | ≥ 80
Nc1c(-c2ccc(SC(F)(F)F)cc2)c(C(F)(F)F)nn1-c1ncccn1 [Example 5-62] |  | ≥ 80 | ≥ 80
CCNc1c(-c2ccc(Cl)cc2)c(C(F)(F)F)nn1-c1ncccn1 [Example 12-7, 4-(4-chlorophenyl)-N-ethyl-l-pyrimidin-2-yl-3-(trifluoromethyl)-1H-pyrazole-5-amine] | ≥ 80 | ≥ 80 | ≥ 80
FC(F)(F)c1nn(-c2ncccn2)c(Cl)c1-c1ccc(Cl)cc1 [Example 14-7] | ≥ 80 | ≥ 80 | ≥ 80
CC(=O)N(C(C)=O)c1c(-c2ccc(Cl)c(Cl)c2)c(C(F)(F)F)nn1-c1ncccn1 [Example 29-37, N,N-diacetyl-4-(3,4-dichlorophenyl)-1-pyrimidin-2-yl-3-(trifluoromethyl)-1H-pyrazole-5-amine] | ≥ 80 | ≥ 80 | 
